Test results from US20090170762A1, “Treatment of Diabetes Related Obesity” (UUTech Limited, priority 2005, published 2009).
Ends that are not written are not given here.

What was measured:
DPP-IV = DPP-IV (Homo sapiens, UniProt P27487); experiment: Degradation of GIP and Glu3-substituted GIP analogs by DPP-IV (HPLC); assay type: in vitro ADME; settings: for half-life at 2 μm: DPP-IV enzyme (5 mU) in buffer, pH 7.8, incubation with DPP-IV, unit not given (time points in hrs), read-out: Estimated Half-Life (converted); for Intact Peptide Remaining (%) 0 hrs. / remaining at 2 h, 2 μm / remaining at 4 h, 2 μm / remaining at 8 h, 2 μm: incubation with DPP-IV (5 mU), 37°C; for Intact Peptide Remaining (%) 0 hrs.: pH 7.8, 0 hrs; for remaining at 2 h, 2 μm / remaining at 4 h, 2 μm / remaining at 8 h, 2 μm: isolated DPP-IV enzyme (5 mU); for remaining at 2 h, 2 μm: pH 7.8, 2 hrs, read-out: Intact Peptide Remaining (%) 2 hrs.; for remaining at 4 h, 2 μm: pH 7.8, 4 hrs, read-out: Intact Peptide Remaining (%) 4 hrs.; for remaining at 8 h, 2 μm: pH 7.8, 8 hrs, read-out: Intact Peptide Remaining (%) 8 hrs.; for resistance to DPP-IV degradation: words, up to 8 hours incubation
ob/ob mice = experiment: Acute antihyperglycaemic and insulin releasing activity with glucose and native GIP in ob/ob mice; assay type: in vivo, mouse; settings: for plasma glucose and insulin profiles when administered together with native GIP: 25 nmol/kg i.p. with GIP and glucose 18 mmol/kg, vs native GIP
Procedure: Animals. Obese diabetic (ob/ob) mice derived from the colony maintained at Aston University, UK (Bailey C. J. et al., 1982, Int. J. Obes. 6:11-21) were used at 14-18 weeks of age. Animals were age-matched, divided into groups and housed individually in an air-conditioned room at 22±2° C. with a 12 hour light: 12 hour dark cycle (08:00-20:00 hr). Drinking water and a standard rodent maintenance diet (Trouw Nutrition, Cheshire, UK) were freely available. All animal experiments were carried out in accordance with the UK Animals (Scientific Procedures) Act 1986.
Biochemical analysis. Plasma glucose was assayed by an automated glucose oxidase procedure ([…]) using a Beckman Glucose Analyzer II (Beckman Instruments, Galway, Ireland). Plasma insulin was assayed by radioimmunoassay.
Methods. […] All test solutions were administered in a final volume of 5 ml/kg body weight. Blood samples were collected from the cut tip of the tail vein of conscious mice into chilled fluoride/heparin coated glucose microcentrifuge tubes (Sarstedt, Numbrecht, Germany) immediately prior to injection and at 15, 30 and 60 minutes post injection. Blood samples were immediately centrifuged using a Beckmnan microcentrifuge (Beckman Instruments, High Wycombe, Buckinghamshire, UK) for 30 seconds at 13,000×g. Plasma glucose was assayed using a Beckman Glucose Analyzer n (Beckman Instruments, High Wycombe, Buckinghamshire, UK) (Stevens, J. F., 1971, Clin. Chim. Acta 32:199-201) and plasma insulin was determined by RIA (Flatt, P. R. and Bailey, C. J., 1981, Diabetologia 5:573-577). All animal studies were carried out in accordance with the UK Animals (Scientific Procedures) Act 1986.

BRIN-BD11 cells = experiment: Insulin secretion from BRIN-BD11 cells; assay type: cell-based; settings: for Maximal insulin response (% GIP max) / Insulin response in presence of 10^-7 M GIP (% GIP max): 5.6 mm glucose; for Maximal insulin response (% GIP max): 20 min; for Insulin response in presence of 10^-7 M GIP (% GIP max): in presence of 10^-7 M native GIP; for effect on GIP-stimulated insulin secretion: in presence of GIP (10^-7 m)
Procedure: (§1) Tissue Culture. Chinese Hamster Lung (CHL) fibroblast cells stably transfected with the human GIP-R were cultured in DMEM tissue culture medium containing 10%. (v/v) fetal bovine serum, 1% (v/v) antibiotics (100 U/ml penicillin, 0.1 mg/ml streptomycin) (all from Gibco, Paisley, Strathclyde, Scotland). BRIN-BD11 cells were cultured in RPMI-1640 tissue culture medium containing 10% (v/v) fetal bovine serum, 1% (v/v) antibiotics (100 U/ml penicillin, 0.1 mg/ml streptomycin) and 11.1 mm glucose. The origin and secretory characteristics of these cells have been described in detail previously (McClenaghan, N. H. et al., 1996, Diabetes 45:1132-1140). The cells were maintained in sterile tissue culture flasks (Corning Glass Works, Sunderland, UK) at 37° C. in an atmosphere of 5% CO2 and 95% air using a LEEC incubator (Laboratory Technical Engineering, Nottingham, UK).
Methods. Insulin release from BRIN-BD11 cells was determined by use of cell monolayers as described previously (Gault, V. A. et al. 2002, Biochem. J. 367:913-920). In brief, BRIN-BD11 cells were seeded into 24-well plates (Nunc, Roskilde, Denmark) at a density of 1.5×10^5 cells per well and allowed to attach overnight in RPMI-1640 culture medium at 37° C. Acute tests for insulin secretion were preceded by 40 minutes pre-incubation at 37° C. in 1.0 ml Krebs Ringer Bicarbonate Buffer (KRBB, 115 mm NaCl, 4.7 mm KCl, 1.28 mm CaCl2, 1.2 mM MgSO4, 1.2 mm KH2PO4, 25 mM HEPES and 10 mm NaHCO3; pH 7.4 with NaOH) supplemented with 0.1% (w/v) BSA and 1.1 mM glucose. […] After 20 minutes incubation, the buffer was removed and used for measurement of insulin by radioimmunoassay (Flatt, P. R. and Bailey, C. J., 1981, Diabetologia 5:573-577).

human GIP-R = biological target: T1, human GIP-R (Homo sapiens, UniProt P48546); experiment: Cyclic AMP production in GIP-R transfected CHL cells; assay type: cell-based; settings: for remaining activity at 0.1 µM: CHL, read-out: cAMP response in presence of 10^-7 M GIP (% GIP max); for inhibition of GIP-stimulated cAMP production: in presence of GIP (10^-7 m)
T1 construct: expressed in transfected cells; host or cells: Chinese Hamster Lung (CHL) fibroblast cells, stably transfected
T1 sequence (P48546 22-466): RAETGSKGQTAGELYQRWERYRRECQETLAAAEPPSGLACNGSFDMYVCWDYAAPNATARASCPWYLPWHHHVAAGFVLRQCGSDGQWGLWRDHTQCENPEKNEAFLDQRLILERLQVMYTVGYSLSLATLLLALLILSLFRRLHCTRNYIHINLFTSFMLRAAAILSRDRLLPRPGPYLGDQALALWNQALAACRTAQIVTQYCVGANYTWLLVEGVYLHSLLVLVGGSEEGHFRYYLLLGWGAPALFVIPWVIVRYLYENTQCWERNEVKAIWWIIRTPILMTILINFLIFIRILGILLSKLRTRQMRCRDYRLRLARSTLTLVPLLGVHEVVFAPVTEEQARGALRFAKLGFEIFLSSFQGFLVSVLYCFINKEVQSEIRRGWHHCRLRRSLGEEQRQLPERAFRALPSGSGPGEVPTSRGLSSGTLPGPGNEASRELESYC
Procedure: as §1, with “Chinese Hamster Lung (CHL) fibroblast cells stably transfected with the human GIP-R were cultured in DMEM tissue culture medium containing 10%.” left out
Methods. […] The culture medium was removed and cells subsequently washed twice with 2 ml ice-cold HBS buffer (130 mm NaCl, 20 mm HEPES, 0.9 mm NaHPO4, 0.8 mm MgSO4, 5.4 mm KCl, 1.8 mm CaCl2, 5.6 mm glucose and 25 μm phenol red) (pH 7.4). […] The medium was subsequently removed and the cells lysed with […] of lysing solution (5% TCA, 3% SDS, 92% H2O, also containing 0.1 mm unlabelled cAMP and 0.1 mm unlabelled ATP) (Sigma, Poole, Dorset, UK). The plates were then left on a shaker at room temperature for 30 minutes and tritiated cAMP formation determined by column chromatography using Dowex and alumina ion exchange columns (BioRad Life Science Research, Alpha Analytical, Larne, UK) as previously described (Gault, V. A. et al 2002, Biochem. J. 367:913-920).

Chain of DPP-IV (P27487 whole entry, species assumed): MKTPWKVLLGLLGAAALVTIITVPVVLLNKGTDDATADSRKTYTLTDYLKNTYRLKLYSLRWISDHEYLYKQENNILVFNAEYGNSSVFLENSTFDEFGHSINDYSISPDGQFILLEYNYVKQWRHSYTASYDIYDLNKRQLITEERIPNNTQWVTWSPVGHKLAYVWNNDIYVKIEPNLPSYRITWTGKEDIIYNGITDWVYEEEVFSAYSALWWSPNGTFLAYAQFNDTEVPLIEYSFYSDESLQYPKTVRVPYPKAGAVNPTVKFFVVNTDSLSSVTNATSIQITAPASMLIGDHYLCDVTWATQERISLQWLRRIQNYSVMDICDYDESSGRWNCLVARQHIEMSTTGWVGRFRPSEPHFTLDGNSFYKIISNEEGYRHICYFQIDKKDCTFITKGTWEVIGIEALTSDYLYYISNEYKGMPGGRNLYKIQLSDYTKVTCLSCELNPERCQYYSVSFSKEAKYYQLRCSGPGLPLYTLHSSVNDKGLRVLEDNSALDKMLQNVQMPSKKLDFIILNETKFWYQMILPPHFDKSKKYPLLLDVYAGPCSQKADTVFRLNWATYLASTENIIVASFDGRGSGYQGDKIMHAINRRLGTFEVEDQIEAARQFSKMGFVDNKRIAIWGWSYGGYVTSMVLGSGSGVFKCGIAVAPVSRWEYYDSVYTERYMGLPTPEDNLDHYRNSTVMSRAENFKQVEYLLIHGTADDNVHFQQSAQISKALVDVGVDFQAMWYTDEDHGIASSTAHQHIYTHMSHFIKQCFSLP

Compound	half-life at 2 μm (DPP-IV)	Intact Peptide Remaining (%) 0 hrs. (DPP-IV)	remaining at 2 h, 2 μm (DPP-IV)	remaining at 4 h, 2 μm (DPP-IV)	remaining at 8 h, 2 μm (DPP-IV)	resistance to DPP-IV degradation (DPP-IV)	glycaemic excursion and insulin response (ob/ob mice; compared with i.p. glucose alone)	Maximal insulin response (% GIP max) (BRIN-BD11 cells; BRIN-BD11 cells)	Insulin response in presence of 10^-7 M GIP (% GIP max) (BRIN-BD11 cells; BRIN-BD11 cells)	EC50 (human GIP-R)	remaining activity at 0.1 µM (human GIP-R)	inhibition of GIP-stimulated cAMP production (human GIP-R)	plasma glucose and insulin profiles when administered together with native GIP (ob/ob mice)	stimulation of insulin secretion compared with control incubations (BRIN-BD11 cells; BRIN-BD11 cells, vs 5.6 mm glucose alone)	effect on GIP-stimulated insulin secretion (BRIN-BD11 cells)
CC[C@H](C)[C@H](NC(=O)[C@H](CO)NC(=O)[C@H](Cc1ccc(O)cc1)NC(=O)[C@H](CC(=O)O)NC(=O)[C@H](CO)NC(=O)[C@@H](NC(=O)[C@H](Cc1ccccc1)NC(=O)[C@@H](NC(=O)CNC(=O)[C@H](CCC(=O)O)NC(=O)[C@H](C)NC(=O)[C@@H](N)Cc1ccc(O)cc1)[C@@H](C)O)[C@@H](C)CC)C(=O)N[C@@H](C)C(=O)N[C@@H](CCSC)C(=O)N[C@@H](CC(=O)O)C(=O)N[C@@H](CCCCN)C(=O)N[C@H](C(=O)N[C@@H](Cc1c[nH]cn1)C(=O)N[C@@H](CCC(N)=O)C(=O)N[C@@H](CCC(N)=O)C(=O)N[C@@H](CC(=O)O)C(=O)N[C@@H](Cc1ccccc1)C(=O)N[C@H](C(=O)N[C@@H](CC(N)=O)C(=O)N[C@@H](Cc1c[nH]c2ccccc12)C(=O)N[C@@H](CC(C)C)C(=O)N[C@@H](CC(C)C)C(=O)N[C@@H](C)C(=O)N[C@@H](CCC(N)=O)C(=O)N[C@@H](CCCCN)C(=O)NCC(=O)N[C@@H](CCCCN)C(=O)N[C@@H](CCCCN)C(=O)N[C@@H](CC(N)=O)C(=O)N[C@@H](CC(=O)O)C(=O)N[C@@H](Cc1c[nH]c2ccccc12)C(=O)N[C@@H](CCCCN)C(=O)N[C@@H](Cc1c[nH]cn1)C(=O)N[C@@H](CC(N)=O)C(=O)N[C@H](C(=O)N[C@H](C(=O)N[C@@H](CCC(N)=O)C(=O)O)[C@@H](C)O)[C@@H](C)CC)C(C)C)[C@@H](C)CC [GIP, reference compound]	1.3 h	100%	20.9 ± 1.6%	4.9 ± 1.2%	0%	complete degradation by 8 hours	decreased the glycaemic excursion and enhanced insulin response	100 % GIP max	100 % GIP max	–	–	–	–	–	–
YAAGTFISDYSIAMDKIHQQDFVNWLLAQKGKKNDWKHNITQ [(Ala^3)GIP]	1.1 h	100%	5.9 ± 1.7%	2.7 ± 0.1%	0%	least resistant	–	111 ± 6 % GIP max	115 ± 3 % GIP max	2.3 nM	88 ± 3%	did not significantly inhibit	significantly inhibited the action of GIP	1.7 fold	did not significantly affect
YAFGTFISDYSIAMDKIHQQDFVNWLLAQKGKKNDWKHNITQ [(Phe^3)GIP]	1.2 h	100%	15 ± 5.2%	2.5 ± 0.1%	0%	–	–	75 ± 3 % GIP max	73 ± 3 % GIP max	1 nM	62 ± 3%	significantly inhibited	significantly inhibited the action of GIP	–	significantly inhibited
YAKGTFISDYSIAMDKIHQQDFVNWLLAQKGKKNDWKHNITQ [(Lys^3)GIP]	1.7 h	100%	41.4 ± 0.3%	14.9 ± 1.1%	0%	significantly more resistant	–	78 ± 3 % GIP max	78 ± 4 % GIP max	2.6 nM	63.5 ± 4%	significantly inhibited	did not significantly alter	–	significantly inhibited
YAWGTFISDYSIAMDKIHQQDFVNWLLAQKGKKNDWKHNITQ [(Trp^3)GIP]	1.3 h	100%	22.5 ± 1.7%	4.7 ± 2.4%	0%	–	–	73 ± 2 % GIP max	100 ± 5 % GIP max	3 nM	78 ± 2%	did not significantly inhibit	did not significantly alter	–	did not significantly affect
